According to PMC7582876, “Antiproliferative Properties of a Few Auranofin-Related Gold(I) and Silver(I) Complexes in Leukemia Cells and their Interferences with the Ubiquitin Proteasome System” (Molecules, 2020):

Tests used:
CCRF-CEM cells = assay: Resazurin cytotoxicity assay, drug-sensitive CCRF-CEM leukemia cells; type: cell-based, human; conditions: cell growth, 72 h incubation, IC50 ± SD, n = 3
Procedure: Drug-sensitive CCRF-CEM and multidrug-resistant (MDR) P-glycoprotein (P-gp)-over-expressing CEM/ADR5000 leukemic cells were kindly provided by Prof. Axel Sauerbrey (Department of Pediatrics, University of Jena, Germany). Cells were cultured in RPMA1640 medium including 10% fetal bovine serum (FBS) and 1% penicillin (1000 U/mL)/streptomycin (100 µg/mL) (Life Technologies, Darmstadt, Germany). Doxorubicin (5000 ng/mL) was added to maintain overexpression of P-gp (MDR1 and ABCB1) in CEM/ADR5000 cells. Doxorubicin was obtained from the University Pharmacy of the University Medical Center Mainz. CEM/ADR5000 cells display a more than 1000-fold resistance to doxorubicin [27] and are therefore a suitable model to identify novel drugs without or very low cross-resistance.
The cytotoxic effects of the compounds solved in DMSO (Sigma-Aldrich, Taufkirchen, Germany) were tested by the resazurin assay. This assay is based on reduction of the indicator dye, resazurin, to the highly fluorescent resorufin by viable cells. Cells lethally damaged by cytotoxic compounds rapidly lose the enzymatic capability to reduce non-fluorescent resazurin to the highly fluorescent resorufin. As the reductive potential happens in a dose-dependent manner, this chemical reaction can be exploited to quantitatively determine the cytotoxic potential of investigational compounds and to measure dose-response relationships. With increasing concentrations of a cytotoxic drug, the fluorescence signal fades out. Aliquots of 10,000 cells/100 µL cells were seeded into 96-well plates (Thermo-Scientific, Dreieich, Germany) and immediately treated with various concentrations of each compound. After 72 h incubation at 37 °C, 20 µL resazurin 0.01% w/v solution (Invitrogen, Dreieich, Germany) were added to each well, and the plates were maintained at 37 °C for 4 h. Fluorescence was measuring by an Infinite M2000 Proplate reader (Tecan, Crailsheim, Germany) with an excitation wavelength of 544 nm and an emission wavelength of 590 nm. Each experiment was done at least three times with six replicates each. The viability was analyzed in comparison with untreated cells. […] It is a well-established measure to determine the cytotoxic potential of anticancer drugs. The IC50 values were calculated from a calibration curve by linear regression using Microsoft Excel.

[1] = target: T1, human cathepsin-B (Cat-B) (Homo sapiens, UniProt P07858); assay: Cathepsin-B inhibition screening; type: biochemical; conditions: over 10 min
T1 construct: purchased Calbiochem, Darmstadt, Germany; host or cells: recombinant
Procedure: The IC50 values were calculated with the program GraFit® using the two-parameter equation. More detailed experimental protocols for the assays against each proteolytic activity of the 20S proteasome, as well as against bovine pancreatic α-chymotrypsin, are already reported elsewhere (see also Supplementary Materials). Cat-B and Cat-L were purchased from Calbiochem, Darmstadt, Germany, and the related assays were performed as previously described. […] Assay for Bovine Pancreatic α-Chymotrypsin Inhibition The enzyme ([…]) was incubated at 20 °C with the test compound present at 10 μM (screening assay). The reaction buffer consisted of 50 mM Tris buffer pH 8.0 containing 100 mM NaCl, 5 mM EDTA and 7.5% DMSO. Product release from substrate hydrolysis ([…] final concentration, Suc-[…] from Bachem) was determined over a period of 10 min. Assay for Cathepsin-B and Cathepsin-L Inhibition Assays were performed at 25 °C in a 20 mM Tris-HCl buffer, pH 6.0, containing 5 mM […] Substrate (Cbz-Phe-Arg-AMC for both enzymes) and inhibitor stock solutions were prepared in DMSO (10% final concentration) and were diluted with assay buffer; enzymes were held in buffer. The final substrate concentration for inhibition assays was between 10.0 and 81.0 […] for CB (recombinant, human liver). […] μM and 140 μM. Product release from substrate hydrolysis was determined over a period of 10 min.

[2] = test system: human cathepsin-L (Cat-L); assay: Cathepsin-L inhibition screening; type: biochemical; conditions: over 10 min
Procedure: 20S proteasome, isolated and purified from human erythrocytes, was obtained from a commercial source (Biomol GmbH, Hamburg, Germany), as well as the peptidic substrates (Bachem, Bubendorf, Switzerland) Suc-Leu-Leu-Val-Tyr-AMC, Boc-Leu-Arg-Arg-AMC and Cbz-Leu-Leu-Glu-AMC for ChT-L, T-L and PGPH (C-L) activity of the enzyme, respectively. The three distinct proteolytic activities of the 20S proteasome were measured by monitoring the hydrolysis of the substrates and detecting the fluorescence of the common product released, i.e., 7-amino-4-methyl coumarin (7-AMC), by means of an Infinite 200 PRO microplate reader (Tecan, Männedorf, Switzerland) at 30 °C with a 380-nm excitation filter and a 460-nm emission filter. All gold and silver complexes were tested against the three proteolytic activities of the 20S proteasome and against Cat-B, Cat-L and bovine pancreatic α-chymotrypsin at 10 µM concentrations over a period of 10 min using an equivalent amount of DMSO as a negative control. […]. The IC50 values were calculated with the program GraFit® using the two-parameter equation. More detailed experimental protocols for the assays against each proteolytic activity of the 20S proteasome, as well as against bovine pancreatic α-chymotrypsin, are already reported elsewhere (see also Supplementary Materials). Cat-B and Cat-L were purchased from Calbiochem, Darmstadt, Germany, and the related assays were performed as previously described. The employed fluorogenic substrate for both cysteine proteases was Cbz-Phe-Arg-AMC (80 µM for Cat-B; 5 µM for Cat-L). […]
Assay for Cathepsin-B and Cathepsin-L Inhibition
Assays were performed at 25 °C in a 20 mM Tris-HCl buffer, pH 6.0, containing 5 mM
EDTA, 2.5 mM DTT, 200 mM NaCl, 0.005% Brij 35 in a total volume of 285 µL. Substrate
(Cbz-Phe-Arg-AMC for both enzymes) and inhibitor stock solutions were prepared in
DMSO (10% final concentration) and were diluted with assay buffer; enzymes were held
for CB (recombinant, human liver). Inhibitors were used at concentrations between 0.35
µM and 140 µM. Product release from substrate hydrolysis was determined over a period

| Compound | IC50 (CCRF-CEM cells) [nM] | Cat-B Inhibition (%) at 10 µM [1] | Cat-L Inhibition (%) at 10 µM [2] |
| --- | --- | --- | --- |
| CCP(CC)CC.[Br][Au] [Au(PEt3)Br] | 280 ± 60 | 31 ± 2.2% | n.i. |
| CC[P](CC)(CC)[Au][I] [Au(PEt3)I] | 320 ± 70 | 29 ± 1.7% | n.i. |
| CC[PH](CC)(CC)[Ag][Cl] [Ag(PEt3)Cl] | 1360 ± 250 | n.i. | n.i. |
| CC[PH](CC)(CC)[Ag][Br] [Ag(PEt3)Br] | 1500 ± 100 | n.i. | n.i. |
| CCP(CC)CC.CCP(CC)CC.O=[N+]([O-])[O-].[Ag+] [[Ag(PEt3)2]NO3] |  | n.i. | 20 ± 0.4% |
| CCP(CC)CC.[Au+].[Cl-] [Au(PEt3)Cl] | 350 ± 30 | 29 ± 0.2% | n.i. |
| CC(=O)OC[C@H]1O[C@@H]([S-])[C@H](OC(C)=O)[C@@H](OC(C)=O)[C@@H]1OC(C)=O.CCP(CC)CC.[Au+] [auranofin, Auranofin] | 220 ± 80 | n.i. | n.i. |
| CC[PH](CC)(CC)[Ag][I] [Ag(PEt3)I] | 1280 ± 120 | n.i. | n.i. |
